Source: patent US8293786B2 (Alltranz Inc., priority 2007, dated 2012)

Assays:
[1] = Plasma stability of cannabidiol prodrugs (bioconversion to parent drug); assay type: in vitro ADME; conditions: Table 20, di-prodrug in plasma; for % mono-prodrug at time (h): mono-prodrug formed
Procedure: An approximated 1 mg/mL stock solution of each prodrug was prepared in 100 μL of ethanol and 900 μL of acetonitrile. Ten (10) μL of stock was spiked into 1 mL of plasma and vortexed. The samples were kept sealed in an amber vial and samples were obtained to analyze for bioconversion to parent drug.

human abdominal skin = assay: In vitro human skin permeation and skin disposition, flow-through diffusion cells (Example 1); assay type: in vitro ADME
Procedure: Flow through diffusion cells were used for the permeation studies. HEPES-buffered Hanks' balanced salts containing 40% (polyethylene glycol) PEG 400 with gentamicin was used for the receiver compartment. Donor solution was comprised of either 100% propylene glycol (PG) solution or a rubbed in gel formulation. […] Drug accumulation in the skin after a 24 or 36 h diffusion experiment was determined as μmol/g wet tissue weight.
The skin samples used in the following experiments were obtained from abdominal reduction surgery and dermatomed to a thickness of approximately 200 μm. The skin samples used herein were frozen at −20° C. for less than six months.
1 L of receiver fluid was prepared by measuring 1 L of nanopure water into a graduated cylinder. 90% of the water was added to an Erlenmeyer flask. Hanks' salts (1 bottle) were added to the water along with 5.96 g of HEPES and 0.35 g of sodium bicarbonate. The pH of the solution was adjusted with 1 N sodium hydroxide solution to pH 7.4. The remaining water was added and the receiver fluid was filtered through a 0.2μ filter (Millipore, Billerica, Mass.). 50 mg of gentamicin was added to the filtered receiver fluid and 400 mL of the receiver fluid was removed and replaced with 400 mL of PEG 400.
Two different formulations were used for charging the donor compartment. Drugs were made up in either 100% PG or a gel formulation. For the PG solution, approximately 50-120 mg of the appropriate drug was weighed into a glass silanized culture tube. The gel formulation resulted from the mixing of absolute ethanol, nanopure water, IPM, Carbopol® 980, 0.1 N aqueous sodium hydroxide solution and the respective drug.
Dermatomed skin harvested from abdominoplasty, stored at −20° C., was used for the experiments. A PermeGear flow-through (In-Line, Riegelsville, Pa.) diffusion cell system was used for the skin permeation studies.
Diffusion cells were kept at 32° C. with a circulating water bath. Human epidermal skin was arranged in the diffusion cell with stratum corneum (upper layer of skin) facing the donor compartment. Permeation area of the skin was 0.95 cm^2. Data was collected from a human skin donor with three to four diffusion cells per treatment.
Receiver solution was HEPES-buffered Hanks' balanced salts with gentamicin containing 40% PEG 400 at a pH of 7.4 and flow rate was adjusted to 0.8 mL/h. Each cell was charged with 0.050 mL of the respective drug formulation (donor solution) or with 0.035 mL of gel formulation which was rubbed into the skin for 15 sec with a Teflon coated rod. The formulation was applied to ensure complete coverage. Diffusion cells were covered with a cap for the duration of the study.
Samples were collected into scintillation vials in 3 h increments for either 24 h or 36 h. All the samples were stored at 4° C. until extracted. An aliquot (0.5 mL) of the diffusion sample was placed into a silanized HPLC vial and 0.5 mL of acetonitrile was added to the sample, capped and vortexed.
At the end of the experiment, the skin tissue was removed from the diffusion cell, rinsed with nanopure water, and blotted dry with a paper towel. The skin was tape stripped twice using book tape (Scotch™, 3M, St. Paul, Minn.) to remove drug formulation adhering to the tissue surface. The area of skin in contact with the drug was cut out, chopped up and placed in a pre-weighed scintillation vial. Ten mL of acetonitrile was added to the vial and drug was extracted from the skin by shaking at room temperature overnight. The following day a 0.1 mL aliquot was removed and diluted with an additional 0.9 mL of acetonitrile. The diluted sample was added to the silanized HPLC vial for analysis.
At the end of the experiment, a 0.01 mL aliquot of the PG donor solution was removed and added to a scintillation vial containing 10 mL of acetonitrile. The vials were vortexed and then sonicated for 15 min. An aliquot of 1 mL was removed and transferred into a silanized HPLC vial for analysis.

[2] = Table 3, in propylene glycol, prodrug applied
[3] = Table 4, in propylene glycol, prodrug applied
[4] = Table 5, in propylene glycol, prodrug applied

C=C(C)C1CCC(C)=CC1c1c(OC(=O)COCCOCCOC)cc(CCCCC)cc1OC(=O)COCCOCCOC (stereo not drawn) [ALL00141, CBD bis(2-[2-(2-methoxyethoxy)ethoxy]acetate)]
% mono-prodrug at time (h) ([1]; 2 h): 1% | % mono-prodrug at time (h) ([1]; 20 h): 2% | % Di-prodrug at time (h) ([1]; 0 h): 98% | % Di-prodrug at time (h) ([1]; 2 h): 71% | % Di-prodrug at time (h) ([1]; 20 h): 46%

C=C(C)C1CCC(C)=CC1c1c(OC(=O)OCN(CC)CC)cc(CCCCC)cc1OC(=O)OCN(CC)CC (stereo not drawn) [ALL00102]
flux enhancement (in words) (human abdominal skin; Example 1): No flux enhancement | form in which the prodrug permeated through the human skin (human abdominal skin; Example 1): permeated through the human skin as cannabidiol | found in the skin disposition (tissue) samples (human abdominal skin; Example 1): Both cannabidiol and intact prodrug were found | intact prodrug in the diffusion samples (receiver samples) (human abdominal skin; Example 1): No intact prodrug was found | total cannabidiol in the skin compared to cannabidiol (human abdominal skin; Example 1): higher | 24 h cumulative amt (human abdominal skin; [2]): 8.6 ± 6.3 nmol | Flux (human abdominal skin; [2]): 0.6 ± 0.5 nmol/cm^2/h | 24 h cumulative amt (human abdominal skin; [3]): 9.1 ± 5.0 nmol | Flux (human abdominal skin; [3]): 0.7 ± 0.3 nmol/cm^2/h | Lag time (human abdominal skin; [3]): 11.0 ± 2.8 h | 24 h skin conc (human abdominal skin; Table 4, in propylene glycol, prodrug applied, found in skin as CBD): 18.9 ± 9.9 (CBD) μmol/g | 24 h skin conc (human abdominal skin; Table 4, in propylene glycol, prodrug applied, found in skin as PD (prodrug)): 73.4 ± 35.5 (PD) μmol/g | 24 h cumulative amt (human abdominal skin; [4]): 13.7 ± 18.6 nmol | Flux (human abdominal skin; [4]): 0.3 ± 0.1 nmol/cm^2/h | Lag time (human abdominal skin; [4]): 5.1 ± 0.0 h | 24 h skin conc (human abdominal skin; Table 5, in propylene glycol, prodrug applied, found in skin as PD (prodrug)): 183.1 ± 62.8 (PD) μmol/g | 24 h cumulative amt (human abdominal skin; Table 9, in gel formulation): 1.1 ± 0.4 nmol | Flux (human abdominal skin; Table 9, in gel formulation): 0.05 ± 0.02 nmol/cm^2/h | Lag time (human abdominal skin; Table 9, in gel formulation): 1.6 ± 1.6 h | 24 h skin conc (human abdominal skin; Table 9, in gel formulation, as applied compound (CBD, or PD = intact prodrug)): 22.9 ± 9.3 (PD) μmol/g | 24 h skin conc (human abdominal skin; Table 9, in gel formulation, prodrug applied, found in skin as CBD): 0.4 ± 0.3 (CBD) μmol/g | 24 h skin conc (human abdominal skin; Table 10, in propylene glycol, as applied compound (CBD, or PD = intact prodrug)): 31.3 ± 5.5 (PD) μmol/g
